Values quoted from earlier work as cited in patent US6461650B1, “Preparation for supplementing a beverage and method for enriching a beverage in calcium and magnesium” (Institut National de la Recherche Agronomique, priority 1998, dated 2002).

Test system: rats
Conditions: incorporated in the diet

In the case of inulin, the “digestive assimilation of calcium and magnesium” value is listed as “increase the digestive assimilation of calcium and magnesium”.
